Test results as given in the supplement of paper PMC13380429.

Legend:
Conditions in all cases: 72 h
U2OS [1] = assay: relative viability EC50 (midpoint between 100% and the lowest measured viability); higher = less toxic
Calu-3 [2] = assay: as above
Vero E6 [3] = assay: as above
Caco-2 [4] = assay: as above
U2OS [5] = assay: drug sensitivity score (DSS) for viability; higher = more toxic; extreme values may be limits of the assay
Calu-3 [6] = assay: as above
Vero E6 [7] = assay: as above
Caco-2 [8] = assay: as above
U2OS [9] = assay: cell viability relative to DMSO; higher = less toxic
Calu-3 [10] = assay: as above
Vero E6 [11] = assay: as above
Caco-2 [12] = assay: as above
HepG2 [13] = assay: relative viability EC50 (midpoint between 100% and the lowest measured viability); higher = less toxic
HepG2 [14] = assay: drug sensitivity score (DSS) for viability; higher = more toxic; extreme values may be limits of the assay
HepG2 [15] = assay: cell viability relative to DMSO; higher = less toxic

Compound | relative viability EC50 (U2OS [1]) | relative viability EC50 (Calu-3 [2]) | relative viability EC50 (Vero E6 [3]) | relative viability EC50 (Caco-2 [4]) | drug sensitivity score (U2OS [5]) | drug sensitivity score (Calu-3 [6]) | drug sensitivity score (Vero E6 [7]) | drug sensitivity score (Caco-2 [8]) | cell viability (U2OS [9]; 1 nM) | cell viability (U2OS [9]; 10 nM) | cell viability (U2OS [9]; 100 nM) | cell viability (U2OS [9]; 1000 nM) | cell viability (U2OS [9]; 10000 nM) | cell viability (Calu-3 [10]; 1 nM) | cell viability (Calu-3 [10]; 10 nM) | cell viability (Calu-3 [10]; 100 nM) | cell viability (Calu-3 [10]; 1000 nM) | cell viability (Calu-3 [10]; 10000 nM) | cell viability (Vero E6 [11]; 1 nM) | cell viability (Vero E6 [11]; 10 nM) | cell viability (Vero E6 [11]; 100 nM) | cell viability (Vero E6 [11]; 1000 nM) | cell viability (Vero E6 [11]; 10000 nM) | cell viability (Caco-2 [12]; 1 nM) | cell viability (Caco-2 [12]; 10 nM) | cell viability (Caco-2 [12]; 100 nM) | cell viability (Caco-2 [12]; 1000 nM) | cell viability (Caco-2 [12]; 10000 nM) | relative viability EC50 (HepG2 [13]) | drug sensitivity score (HepG2 [14]) | cell viability (HepG2 [15]; 1 nM) | cell viability (HepG2 [15]; 10 nM) | cell viability (HepG2 [15]; 100 nM) | cell viability (HepG2 [15]; 1000 nM) | cell viability (HepG2 [15]; 10000 nM)
CC(C)[C@@H]1CC[C@@H](C)C[C@@H]1P(=O)(c1ccccc1)c1ccccc1 [DPO-1] | > 10 µM | > 10 µM | > 10 µM | > 10 µM | 0 | 0 | 0 | 1.2 | 98.5% | 100% | 97.3% | 102% | 93.7% | 95.9% | 98.4% | 96.7% | 93.7% | 94.1% | 112% | 105% | 110% | 96.6% | 105% | 100% | 102% | 98.7% | 96.6% | 78% |  |  |  |  |  |  | 
O=C(CCCCCCCn1cc(-c2cccnc2)nn1)Nc1ccccc1-c1ccccc1 [GPP-78] | 0.365 µM |  | 0.0395 µM | 0.352 µM | 17.2 |  | 28.7 | 16.8 | 101% | 99.7% | 110% | 0.2% | 0.1% |  |  |  |  |  | 99.2% | 103% | 8.7% | 2.1% | 2.7% | 109% | 97.9% | 106% | 4% | 3.6% | 0.415 µM | 13.6 | 96.6% | 92% | 103% | 25.4% | 18.8%
COc1ccc(-n2c(SCc3nc(-c4ccc(C)cc4)no3)nnc2-c2ccncc2)cc1 [JW-74] | > 10 µM |  |  | > 10 µM | 1 | 0.9 | 3 | 0.1 | 96.4% | 98.3% | 97% | 96% | 81.4% | 95.1% | 106% | 109% | 107% | 70.8% | 108% | 105% | 107% | 88.7% | 68.2% | 111% | 114% | 110% | 100% | 86.9% | > 10 µM | 0 | 99.7% | 101% | 96.2% | 95.3% | 93.3%
CCCCCCCC/C=C\CCCCCCCC(=O)NCCc1ccc(O)c(O)c1 [OLDA] | 2.58 µM | > 10 µM |  |  | 4.9 | 0 | 2 | 3.2 | 101% | 99.1% | 98.3% | 94.6% | 25.9% | 105% | 98.6% | 97.9% | 103% | 104% | 106% | 101% | 99% | 99.2% | 61.7% | 98.1% | 90.4% | 96.7% | 92% | 61.9% |  | 2 | 98.1% | 107% | 100% | 103% | 56.3%
CCCCCOc1ccc(-c2ccc(-c3ccc(C(=O)N[C@H]4C[C@@H](O)[C@@H](O)NC(=O)[C@@H]5[C@@H](O)[C@@H](C)CN5C(=O)[C@H]([C@@H](C)O)NC(=O)[C@H]([C@H](O)[C@@H](O)c5ccc(O)cc5)NC(=O)[C@@H]5C[C@@H](O)CN5C(=O)[C@H]([C@@H](C)O)NC4=O)cc3)cc2)cc1 [anidulafungin] | > 10 µM | > 10 µM | > 10 µM |  | 0 | 0.5 | 0 | 1.7 | 94.8% | 95.6% | 96.8% | 98.1% | 94% | 99.6% | 90.1% | 96.6% | 83.2% | 90.5% | 94.8% | 102% | 104% | 101% | 100% | 110% | 106% | 105% | 105% | 59.2% |  | 1.9 | 97.4% | 104% | 97.6% | 97.1% | 68.7%
C[C@@H](O)[C@H]1C(=O)N2C(C(=O)[O-])=C(SC3Cn4cnc[n+]4C3)[C@H](C)[C@H]12 (stereo partly drawn) [biapenem] | > 10 µM |  | > 10 µM | > 10 µM | 0 |  | 0 | 0 | 98.6% | 104% | 96.3% | 97.1% | 100% |  |  |  |  |  | 98.1% | 100% | 94.7% | 103% | 99.8% | 86.6% | 104% | 96.3% | 93.3% | 97.3% | > 10 µM | 0 | 97.1% | 98% | 93.3% | 90.7% | 95.2%
CC(C)CCC[C@@H](C)[C@H]1CC[C@H]2[C@@H]3CC=C4C[C@@H](O)CC[C@]4(C)[C@H]3CC[C@]12C [cholesterol] | > 10 µM |  | > 10 µM | > 10 µM | 0 |  | 0 | 0 | 102% | 93.3% | 98.2% | 94% | 100% |  |  |  |  |  | 97.1% | 98.2% | 92.2% | 97.6% | 107% | 89.4% | 92.1% | 102% | 90.4% | 98.9% | > 10 µM | 0 | 92.6% | 97.4% | 91.6% | 106% | 104%
CCCCCCCCCCCCCCCC(=O)O[C@@H]1[C@@H](O)[C@@H](O)[C@@H]([C@H](NC(=O)[C@@H]2C[C@@H](CCC)CN2C)[C@H](C)Cl)O[C@@H]1SC [clindamycin-palmitate] | > 10 µM | > 10 µM | > 10 µM | > 10 µM | 0 | 0 | 0 | 0 | 94.2% | 99.7% | 97.7% | 101% | 106% | 99.9% | 102% | 103% | 96.7% | 104% | 95.5% | 96.6% | 93.5% | 97% | 103% | 95% | 94.7% | 90.2% | 101% | 95.4% |  |  |  |  |  |  | 
